Reference: patent US20210113496A1, “Methods of Treating Excitotoxicity Disorders” (HORIZON ORPHAN LLC, priority 2018, published 2021)

Tests used:
HDH Q111/111 cells = assay: XTT Cell Proliferation assay (viability); conditions: FIGS. 2A and 2B
Experimental: (§1) All cell culture methods were carried out under sterile conditions in a class II laminar flow cabinet. The immortalized cell lines, ST HDH Q111/111 and ST HDH Q7/7 were derived from striatal neurons from HdhQ111/Q111 and HdhQ7/Q7 mice (expressing 111 and 7 glutamine repeats, respectively) and were purchased from Coriell. Cells were cultured in Dulbecco's Modified Eagle Medium (DMEM) supplemented with 10% FBS, 4 mM L-alanyl-L-glutamine (Corning Glutagro), and 400 μg/mL G418. Cells were grown at 33° C. in a 5% CO2 incubator. All experiments used cells with passages lower than 14.
(§2) Cells were plated at a density of 8×10^3 or 1.2×10^3 cells/well (CellTox or XTT, respectively) in sterile 96 well plates (100 uL). Cells were allowed to adhere overnight at 33° C. in a 5% CO2 incubator. Test compounds were applied and left to incubate for an additional 24 hours. Membrane integrity was assessed by staining with CellTox Green (Promega) reagent following manufacturer guidelines for the Endpoint (2×) Method. Viability was assessed using an XTT Cell Proliferation Kit (ATCC). Before adding XTT reagent, wells were aspirated and washed with serum free media. 50 uL of XTT reagent and 100 uL serum free media were then added to each well and incubated for 2-4 hours before acquiring data. […]

striatal cells = assay: Live cell count after 24 or 48 hours of culture with glutamate (Cellometer); type: cell-based, mice; conditions: cells cultured with glutamate, cysteamine administered 24 hours later; FIG. 3
Experimental: All experiments used cells with passages lower than 14. Cells were seeded into sterile 12 well plates at an appropriate density (80-120 k cells/well) to reach 50-75% confluence after 24 hours. […] Thereafter, wells were treated with test compounds. Following incubation with the compounds for 24 or 48 hours, wells were rinsed with DPBS, and detached using 500 uL Accutase (EMD). Pellets were rinsed and re-suspended in 250 uL DPBS and live cells were counted on a Cellometer Auto 2000.

[1] = test system: ST HDH Q111/111 striatal cells; assay: Permeability/Cell Death assay based on CellTox Green (membrane integrity)
Experimental: as §1, §2

SMILES | rescue of glutamate-induced excitotoxicity (XTT Cell Proliferation) (HDH Q111/111 cells; cysteamine 25 μM in culture with glutamate) | rescue of glutamate-induced excitotoxicity (XTT Cell Proliferation) (HDH Q111/111 cells; cysteamine 75 μM in culture with glutamate) | cell viability (striatal cells) | number of dead cells (CellTox Green) ([1]; HDH cells cultured with cysteamine and BSO, compared to BSO alone) | sensitivity of cells to toxicity induced by glutamate and/or the test agents ([1]; cysteamine in combination with GFPB (5 mM), and NMDA (500 uM)+4CPG (250 uM) or BSO (250 uM), FIG. 1B) | glutamate excitotoxicity (XTT Cell Proliferation) (HDH Q111/111 cells; glutamate in culture, HDH Q111/111 cells) | cytotoxicity (Cell Tox Green) ([1]; 5 mM glutamate given alone, 24 hours, FIG. 1A)
NCCS [cysteamine, 2-aminoethanethiol] | able to rescue glutamate-induced excitotoxicity | able to rescue glutamate-induced excitotoxicity | positive effects of cysteamine on the cell viability was still observed | reduced the number of dead cells | able to reduce sensitivity of cells to toxicity |  | 
N[C@@H](CCC(=O)O)C(=O)O [glutamate, L-Glutamic acid] |  |  |  |  |  | experience glutamate excitotoxicity | toxic to cells
